Assay results from article PMC7956476, “Quinoline Functionalized Schiff Base Silver (I) Complexes: Interactions with Biomolecules and In Vitro Cytotoxicity, Antioxidant and Antimicrobial Activities” (Molecules, 2021).

Columns and labels:
calf thymus DNA (CT-DNA) = assay: CT-DNA electronic absorption titration (Wolfe–Shimer); assay type: binding; settings: for CT-DNA-Cmp. Kb (M^−1) × 10^5: intrinsic binding constant, absorption titration, PBS pH 7.2
Protocol: The interaction of the L1–L5 and complexes Q1–Q15 with calf thymus-DNA was carried out in a Phosphate buffer saline solution pH 7.2 stored at 4 °C. The DNA stock solution was prepared by dissolving CT-DNA sodium salt in Phosphate buffer saline solution with continuous stirring overnight. It was filtered and stored at 4 °C and used within four days. […] A fixed amount of the L1–L5 and complexes Q1–Q15 (50 µM) were prepared by dissolving an appropriate amount in DMSO. […] Therefore, in all the experimental of the interaction of L1–L5 and complexes Q1–Q15 with biomolecules, the final concentration of DMSO in the incubation mixture was ~2% (v/v).
The binding modes of L1–L5 and complexes Q1–Q15 to CT-DNA were characterized through electronic absorption titration by varying concentrations of CT-DNA (0–30 µM) in phosphate buffer saline solution against fixed concentrations (20 µM) of L1–L5 and complexes Q1–Q15. […] The absorbance of CT-DNA is cancelled by adding equivalent amounts of CT-DNA to both the tested compounds and the reference solutions.

[1] = system: Staphylococcus aureus ATCC 700699 (methicillin-resistant); assay: Minimum inhibitory concentration (MIC), spotting on Müeller–Hinton agar; assay type: cell-based; settings: Gram + Ve, methicillin-resistant S. aureus, 37 °C, 18 h
Protocol: (§1) Sterilized Nutrient agar medium was first prepared by dissolving 38 g of Müeller–Hinton agar (MHA) (Biolab, Midrand, Africa) in distilled water (1 L). […] The cooled Agar medium was poured in Petri dishes while ensuring a uniform 4 mm depth of the medium and cooling further to ambient temperature.
(§2) These bacteria were inoculated in a sterilized Nutrient Broth (NB) (Biolab, Midrand, Africa) through streak plate technique and incubated at 37 °C for 18 h. The nutrient broth was sterilized by dissolving 1.3 g in distilled water (100 mL). Ca. 10 mL of the nutrient broth was transferred into a cotton wool-plugged test tubes and wrapped with an aluminium foil. […] Following this was the isolation of a single colony of the bacteria and inoculated into a 10 mL sterile NB which was then incubated in a shaking incubator at 37 °C for 18 h. Each of the bacteria strain concentrations was adjusted with sterile distilled water to get a final concentration of 1.5 × 10^8 cfu/mL, i.e., 0.5 Mc Farland’s Standard using a densitometer (Mc Farland Latvia). The bacteria were lawn inoculated on the set MHA Petri dishes using a sterile cotton swab. Screening of L1–L5 and Q1–Q15 for antibacterial activity was first carried out by spotting 5 µL of their solution (prepared from the dissolution of 1000 µg of the L1–L5 and Q1–Q15 in 1 mL dimethyl sulfoxide (DMSO)) on an MHA petri dish and incubated at 37 °C for 18 h. The antibacterial activity was determined by looking out for a clear zone at the spotting point.

[2] = system: Salmonella typhimurium ATCC 14026; assay: as above; assay type: cell-based; settings: Gram − Ve; S. typhi; 37 °C, 18 h
Protocol: as §1, §2

[3] = system: Escherichia coli ATCC 25922; assay: as above; assay type: cell-based; settings: Gram − Ve; E. coli; 37 °C, 18 h
Protocol: as §1, §2

[4] = system: Pseudomonas aeruginosa ATCC 27853; assay: as above; assay type: cell-based; settings: Gram − Ve, P. aeruginosa, 37 °C; for Minimum inhibitory concentration, PA: 18 h; for MIC: Pseudomonas aeruginosa, ATCC27853, 18 h, read-out: Minimum inhibitory concentration, PA
Protocol: as §1, §2

CT-DNA-EB adduct = assay: Fluorescence competitive displacement of ethidium bromide from CT-DNA; assay type: binding, calf
Text: The Stern–Volmer plot approach was used based on the fact that the Stern–Volmer plots for Q1–Q15 (Figure 5c), were linear an indication of only one mechanism for the quenching fluorescence, i.e., either dynamic or static. […] (1) Ksv=Kqτo where Ksv, Kq, and τo represent Stern–Volmer quenching constant, bimolecular quenching constant, and an average lifetime of the fluorophore in the absence of the quencher, respectively. τₒ normally takes about 10^−8 s in biomacromolecules.
The double-logarithmic Equation (2) was used in determining the binding constant of complexes Q1–Q15 and CT-DNA. (2) logFo−F/F=logKb+n logQ
A competitive displacement study was carried out using fluorescence spectroscopy between CT-DNA pre-treated with ethidium bromide (EB) and complexes Q1–Q15 to establish the complexes′ actual mode of binding to CT-DNA. […] The competitive luminescence displacement assay was done using a modified method. Pre-treated 15 µM solution of EB with 15 µM of CT-DNA was prepared in a phosphate buffer of pH 7.2 and left to equilibrate for 30 min. Keeping CT-DNA-EB concentrations constant, different concentrations (0–20 µM) of the complexes were added at 8 min incubation interval at room temperature. The fluorescence quenching ability of CT-DNA bound EB by the complexes were recorded in the wavelength range of 530–700 nm with an excitation wavelength at 525 nm at 25 °C. (6) Fo/F=1+KSVQ=1+KqτoQ
A Stern–Volmer (Equation (6)) was used to evaluate the CT-DNA-EB fluorescence quenching of the complexes. Where Fo and F denote the relative fluorescence intensities of CT-DNA in the absence and presence of the quencher, Ksv, Stern–Volmer quenching constant, [Q], quencher concentration, Kq, bimolecular quenching constant and τo, average lifetime of the fluorophore in the absence of the quencher which is typically equal to 10^−8 s in biomacromolecules.

[5] = Ferric reducing antioxidant power (FRAP) assay; assay type: biochemical; settings: done in triplicate
Text: Antioxidants are important in protecting the human body against damage by reactive oxygen species (ROS). Accumulation of ROS in the cells may lead to damage of the DNA, RNA, and proteins which subsequently leads to several physiological disorders such as cardiovascular disease, diabetes, rheumatism, atherosclerosis, cancer, aging and cell death. […] The free radical scavenging ability of all ligands and complexes in this study were investigated using ferric reducing antioxidant power (FRAP). In antioxidant studies, FRAP assay is often preferred because it is simple, fast, economical, and direct in antioxidant measurement. FRAP assay is based on the electron-donating ability of an antioxidant compound. This involves the reduction of a colorless Fe^3+ tripyridyltriazine complex (Fe^3+ (TPTZ)) to an intense blue-colored Fe^2+ tripyridyltriazine complex (Fe^2+ (TPTZ)) by the electron-donating antioxidants at low pH [69]. The reducing power is to determine the reductive ability of the test compounds.
Antioxidant activity studies of L1–L5 and Q1–Q15 were done using ferric reducing antioxidant power (FRAP) assay. The ferric reducing antioxidant power assay is often used to evaluate the ability of an antioxidant to donate an electron. […] The resulting mixture was incubated at 50 °C for 20 min, and 2.5 mL of 10% trichloroacetic acid was added to acidify the mixture. After that, 1 mL of the acidified mixture was added to 1 mL of distilled water and 0.5 mL of 0.1% FeCl3. The absorbance of the resulting solution was then measured at 700 nm. The antioxidant power of the compounds was expressed as a percentage of ferric reducing antioxidant power Ascorbic acid equivalent, as shown in Equation (4). (4) % FRAP =Absorbance of Absorbance of Sample/Absorbance of Ascorbic Acid ×100

[6] = biological target: bovine serum albumin (BSA) (Bos taurus, UniProt P02769); assay: Albumin binding by absorption spectroscopy titration
Text: Bovine serum albumin (BSA) was used as the protein standard in this study because of its close resemblance to human serum albumin (HSA), its stability, high solubility, neutrality in many biochemical reactions and low cost. In protein binding study, absorption spectroscopy titration is a known method used in studying the conformational changes in proteins, and this protein is characterized by an intense absorbance peak at 280 nm depicting the microenvironment around tyrosine and tryptophan residue polarity.
The absorbance assay of albumin binding is a very simple method used in identifying the conformational changes in protein. […] A stock solution of bovine serum albumin (BSA) was prepared by dissolving an appropriate amount of BSA in phosphate buffer saline solution (pH 7.2) under constant stirring for 1 h at 25 °C. It was kept at 4 °C and used within four days. […] The stock solution of the complex was prepared by dissolving 1 mmol of the complexes in DMSO. The absorption titration assay was done by adding different concentrations (0–10 µM) of the complexes to a constant BSA concentration (6 µM). The sample solution was incubated after each addition of the concentrations for 10 min at 25 °C before recording the absorbance at λmax 280 nm.

Sequence of bovine serum albumin (BSA) (P02769 25-607): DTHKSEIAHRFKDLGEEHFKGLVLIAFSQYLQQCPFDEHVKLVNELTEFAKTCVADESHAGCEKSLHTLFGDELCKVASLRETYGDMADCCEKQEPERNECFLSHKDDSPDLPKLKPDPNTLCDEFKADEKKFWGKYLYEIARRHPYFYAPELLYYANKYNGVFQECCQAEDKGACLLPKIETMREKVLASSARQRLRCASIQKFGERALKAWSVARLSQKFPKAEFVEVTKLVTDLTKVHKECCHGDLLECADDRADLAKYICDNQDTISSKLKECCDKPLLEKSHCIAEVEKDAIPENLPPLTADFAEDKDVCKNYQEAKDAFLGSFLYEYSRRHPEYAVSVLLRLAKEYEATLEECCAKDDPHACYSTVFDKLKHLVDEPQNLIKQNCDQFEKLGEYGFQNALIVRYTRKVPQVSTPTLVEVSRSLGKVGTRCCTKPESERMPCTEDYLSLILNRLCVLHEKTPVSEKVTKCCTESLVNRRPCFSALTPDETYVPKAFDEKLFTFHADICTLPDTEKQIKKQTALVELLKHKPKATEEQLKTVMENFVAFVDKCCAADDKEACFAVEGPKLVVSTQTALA

Which “hypochromic shift in the absorption bands on addition of CT-DNA” value (calf thymus DNA (CT-DNA); absorption titration with CT-DNA) does the source give for `O=S(=O)([O-])C(F)(F)F.[Ag+]` [AgCF3SO3, silver trifluoromethanesulfonate, reference compound] here?
Its value is 23.64–50.86%.

What about the “CT-DNA-Cmp. Kb (M^−1) × 10^5” value (calf thymus DNA (CT-DNA)) of the same molecule?
Its value is 2.00 (M^−1) × 10^5.

And the “Minimum inhibitory concentration, MRSA” value [1]?
Its value is 1000 µg/mL.

What about the “Minimum inhibitory concentration, ST” value [2] of the same molecule?
Its value is 12.5 µg/mL.

What about the “Minimum inhibitory concentration, EC” value [3] of the same molecule?
Its value is 50 µg/mL.

And the “Minimum inhibitory concentration, PA” value [4]?
Its value is 1000 µg/mL.

What about the “CT-DNA-EB-Complex Ksv (M^−1) × 10^4” value (CT-DNA-EB adduct; Stern–Volmer quenching constant, EB displacement, 25 °C) of the same molecule?
Its value is 3.01 (M^−1) × 10^4.

What about the “CT-DNA-EB-Complex Kq (M^−1S^−1) × 10^12” value (CT-DNA-EB adduct; bimolecular quenching constant, Ksv = Kqτo, τo 10^−8 s) of the same molecule?
Its value is 3.01 (M^−1S^−1) × 10^12.

What about the “CT-DNA-EB-Complex Kbin (M^−1) × 10^5” value (CT-DNA-EB adduct; binding constant from double-logarithmic plot) of the same molecule?
The value was 1.60 (M^−1) × 10^5.

What about the “Antioxidant (IC50 mg/mL) FRAP” value [5] of the same molecule?
The value was 0.88 ± 0.054 mg/mL.

What about the “Protein-Complex Kb (M^−1) × 10^4” value [6] of the same molecule?
The value was 4.46 (M^−1) × 10^4.

For `O=C1O[C@H]([C@@H](O)CO)C(O)=C1O` [Ascorbic Acid, Ascorbic acid, reference compound], which “Antioxidant (IC50 mg/mL) FRAP” value [5] is on record?
The value was 2.68 ± 0.11 mg/mL.

For `c1ccc2nc(-c3nc4ccccc4s3)ccc2c1` [Complex L2, 2-(quinolin-2-yl)benzo[d]thiazole], which “CT-DNA-Cmp. Kb (M^−1) × 10^5” value (calf thymus DNA (CT-DNA)) is on record?
Its value is 1.50 (M^−1) × 10^5.

What about the “Minimum inhibitory concentration, PA” value [4] of the same molecule?
The value was 100 µg/mL.

What about the MIC [4] of the same molecule?
Its MIC is 50 to 100 µg/mL.

And the “Antioxidant (IC50 mg/mL) FRAP” value [5]?
Its value is 2.29 ± 0.0041 mg/mL.

For `Clc1ccc(/N=C/c2ccc3ccccc3n2)cc1` [Complex L3, (E)-N-(4-chlorophenyl)-1-(quinolin-2-yl)methanimine], which MIC ([1]; Staphylococcus aureus, ATCC 700699 / MRSA) is on record?
Its MIC is 1000 µg/mL.

What about the “Minimum inhibitory concentration, PA” value [4] of the same molecule?
Its value is 100 µg/mL.

What about the MIC [4] of the same molecule?
Its MIC is 50 to 100 µg/mL.

And the “Antioxidant (IC50 mg/mL) FRAP” value [5]?
Its value is 20.35 ± 0.0047 mg/mL.
